Measurements taken from PubChem BioAssay (NCI).
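Grown in 96-well plates, cells were treated for 48 hours with each compound at five concentrations. Insufficient inhibition: endpoint recorded as highest concentration tested. Here, GI50 denotes the concentration required for 50% inhibition of growth. TGI is the concentration that stops growth completely.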

Key:
Test in all cases: inhibition of tumour cell growth, NCI panel, 48 h
[1] = tested on: MDA-N
[2] = tested on: SN12C renal
[3] = tested on: SK-MEL-28 melanoma
[4] = tested on: RXF 393 renal
[5] = tested on: SF-539 CNS
[6] = tested on: SNB-75 CNS
[7] = tested on: BT-549 breast
[8] = tested on: DMS 114 small cell lung
[9] = tested on: LXFL 529 NSCLC
[10] = tested on: SNB-78 CNS
[11] = tested on: DMS 273 small cell lung

| Compound | TGI [1] [µM] | TGI [2] [µM] | TGI [3] [µM] | TGI [4] [µM] | TGI [5] [µM] | TGI [6] [µM] | TGI [7] [µM] | TGI [8] [µM] | TGI [9] [µM] | TGI [10] [µM] | TGI [11] [µM] | GI50 [2] [µM] | GI50 [3] [µM] | GI50 [4] [µM] | GI50 [5] [µM] | GI50 [6] [µM] | GI50 [8] [µM] | GI50 [10] [µM] | GI50 [11] [µM] |
| --- | --- | --- | --- | --- | --- | --- | --- | --- | --- | --- | --- | --- | --- | --- | --- | --- | --- | --- | --- |
| COC1/C=C\OC2(C)Oc3c(C)c(O)c4c(O)c(c(/C=N\OCCCc5ccccc5)c(O)c4c3C2=O)NC(=O)/C(C)=C\C=C/C(C)C(O)C(C)C(O)C(C)C(OC(C)=O)C1C (stereo not drawn) | 13 | 7.66 | 4.65 | 6.92 | 7.3 | 8.86 |  |  |  |  |  |  |  |  |  |  |  |  |  |
| CCN=C=NCCCN(C)C | > 100 | > 100 | > 100 | > 100 | > 100 | > 100 | > 100 |  |  |  |  |  |  |  |  |  |  |  |  |
| CN1CCC(C(=O)NNc2ccccc2)CC1 |  | > 100 | > 88.1 | > 100 | 32.6 | > 100 |  | > 87.2 | 5.69 | > 100 | > 31.3 |  |  |  |  |  |  |  |  |
| COc1ccc(-c2nn(-c3ccc(NC(=O)Nc4ccc(Cl)c(Cl)c4)cc3)cc2-c2ccncc2)cc1Cl |  | > 100 | 68.2 | 2.89 | > 100 | > 100 |  |  |  |  |  | 2.6 | 2.7 | 0.862 | 2.82 | 1.17 |  |  |  |
| c1ccc(-n2cnnc2-c2nsc3ccccc23)cc1 |  | > 100 | > 100 | > 100 | > 100 | > 100 |  |  | > 100 | > 100 | > 100 |  |  |  |  |  |  |  |  |
| C=C1CC23CCC4C(C)(C(=O)O)CCCC4(C)C2CCC1C3 (stereo not drawn) | > 100 | > 100 | > 100 | > 100 | > 100 | > 100 | > 100 |  |  |  |  |  |  |  |  |  |  |  |  |
| O=C(O)CC(C(=O)O)C1c2ccccc2-c2ccccc21 (stereo not drawn) | > 100 | > 100 | > 100 | > 100 |  |  | > 100 |  |  |  |  |  |  |  |  |  |  |  |  |
| COc1cc(C(C)(C)C)cc(OC)c1C(O)(c1c(OC)cc(C(C)(C)C)cc1OC)c1c(OC)cc(C(C)(C)C)cc1OC |  |  |  | 0.871 | 1.22 |  |  |  |  |  |  |  |  | 0.324 | 0.342 |  |  |  |  |
| O=Nc1ccc(O)c2ncccc12 | 6.01 | 25.2 | 17.3 | 5.61 | 4.96 | 8.48 | 23 | 12.4 | 12.9 | 11.4 | 10.3 |  |  |  |  |  |  |  |  |
| Nc1cc(S(=O)(=O)O)cc2cc(S(=O)(=O)O)c(N=Nc3ccc(-c4ccc(N=Nc5c(S(=O)(=O)O)cc6cc(S(=O)(=O)O)cc(N)c6c5O)cc4)cc3)c(O)c12 |  | > 100 | > 100 | > 100 | > 100 | > 100 |  | > 100 |  | > 100 | > 100 |  |  |  |  |  |  |  |  |
| OC(Cc1ccccc1)(Cc1ccccc1)c1ccccc1 | 29.2 | 32 | 47.3 | 29.3 |  |  | 36.3 |  |  |  |  |  |  |  |  |  |  |  |  |
| C=C(C)C(=O)OC1C(C(C)CCCO)=C(CO)CC2OC(=O)C(=C)C21 (stereo not drawn) | 37.7 | 32.8 | 49.1 | 27.2 | 58.9 | 40.5 | 34.7 |  |  |  |  |  |  |  |  |  |  |  |  |
| C=C1C(=O)OC2/C=C(\C)C(=O)CC3OC(C)(C)OC3(C)CC(OC(=O)/C(C)=C/C)C12 (stereo not drawn) | > 80.5 | > 59.2 | 86.5 | 36.7 | 49.4 | > 72.9 | 26.8 |  |  |  |  |  |  |  |  |  |  |  |  |
| O=[N+]([O-])c1ccc(/C=N\Nc2ccc([N+](=O)[O-])cn2)cc1 | > 100 | > 100 | > 100 | > 100 | 82.8 | > 100 | > 100 |  |  |  |  |  |  |  |  |  |  |  |  |
| N=C(N)c1ccc(-c2ccc(-c3cncc4ccccc34)s2)cc1F |  | 3.65 | 3.41 | 3.67 | 3.04 | 3.14 |  |  |  |  |  | 1.85 | 1.75 | 1.75 | 1.6 | 1.73 |  |  |  |
| C=C(CN(C)C)C(=O)c1ccc(C)cc1C | 14.3 | 33.4 | 20.4 | 9.4 | 30 | 34.9 | 12.7 | 46.6 | 26.9 | 60.4 | 44.2 |  |  |  |  |  |  |  |  |
| O=S(=O)(O)c1cc(N=Nc2cc(S(=O)(=O)O)c3ccccc3c2O)ccc1/C=C/c1ccc(N=Nc2cc(S(=O)(=O)O)c3ccccc3c2O)cc1S(=O)(=O)O | 359 | > 1000 | > 1000 | > 1000 | > 667 | > 736 | 552 | > 1000 | > 1000 | > 1000 | > 1000 |  |  |  |  |  | > 1000 | > 1000 | > 1000 |
| C=C(C)[C@@H]1CC[C@]2(C(=O)Nc3ccccn3)CC[C@]3(C)[C@H](CC[C@@H]4[C@@]5(C)CCCNC(C)(C)[C@@H]5CC[C@]43C)[C@@H]12 |  | 2.92 | 3.13 | 3.27 |  | 5.89 |  |  |  |  |  | 1.57 | 1.69 | 1.79 |  | 1.72 |  |  |  |
| C=C(C)C1CC2=C(O1)C(=O)c1ccccc1C2=O (stereo not drawn) |  | 43.5 | 34.2 | 33 | 33.7 | 31.8 |  | 32.9 | 31.4 | 39.9 | 33.5 |  |  |  |  |  |  |  |  |
